Assay results from ChEMBL document CHEMBL1201862, “PubChem BioAssay data set” (2004).
Activity calls are given as the source filed them.

Experiments:
[1] = tested on: Streptococcus sp. 'group A'; test: Streptococcus pyogenes SK(-)GAS viability under kanamycin – luminescence, BacTiterGlo, confirmation, counter-screen for streptokinase expression inhibitor project, dose response (AID 1900); format: functional, organism-based
[2] = Counterscreen for AddAB inhibitors: absorbance-based bacterial cell-based high throughput dose response assay for inhibitors of bacterial viability. [Related pubchem assays (depositor defined):AID435030, AID449728, AID449731, AID488942, AID488955, AID488956]; format: functional
[3] = NIH-3T3 fibroblast cytotoxicity, dose response, cytotoxicity control, cell-based, fluorescence, Alamar Blue, secondary assay (AID 2327); format: functional;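 also: NIH-3T3 mouse fibroblasts cultured with fluconazole at 8 µg/mL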
Exodeoxyribonuclease V = target: T1, Exodeoxyribonuclease V (Escherichia coli (strain K12), UniProt P04993+P07648+P08394); test: RecBCD inhibition via phage-restricted bacterial growth – absorbance, V66 E. coli, mutant T4 phage, counter-screen for AddAB inhibitor project, dose response (AID 492957); format: functional, cell-based, Escherichia coli str. K-12 substr. MG1655
T1 sequence (P04993 whole entry): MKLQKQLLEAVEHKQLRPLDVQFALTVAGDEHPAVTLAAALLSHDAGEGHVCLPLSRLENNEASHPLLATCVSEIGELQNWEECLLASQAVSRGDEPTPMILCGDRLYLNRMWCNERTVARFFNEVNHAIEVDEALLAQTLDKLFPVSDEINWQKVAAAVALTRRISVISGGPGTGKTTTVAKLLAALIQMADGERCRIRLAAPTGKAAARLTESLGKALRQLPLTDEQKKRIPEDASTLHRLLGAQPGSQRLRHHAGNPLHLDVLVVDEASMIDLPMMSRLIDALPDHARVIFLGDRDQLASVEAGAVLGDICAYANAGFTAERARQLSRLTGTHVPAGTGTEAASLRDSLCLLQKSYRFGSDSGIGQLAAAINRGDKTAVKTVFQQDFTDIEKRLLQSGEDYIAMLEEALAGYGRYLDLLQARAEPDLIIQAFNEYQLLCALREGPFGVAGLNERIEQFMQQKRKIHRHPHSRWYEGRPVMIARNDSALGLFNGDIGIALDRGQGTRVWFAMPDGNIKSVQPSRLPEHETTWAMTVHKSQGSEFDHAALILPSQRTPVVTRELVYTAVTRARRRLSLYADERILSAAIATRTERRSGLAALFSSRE
T1 sequence (P07648 whole entry): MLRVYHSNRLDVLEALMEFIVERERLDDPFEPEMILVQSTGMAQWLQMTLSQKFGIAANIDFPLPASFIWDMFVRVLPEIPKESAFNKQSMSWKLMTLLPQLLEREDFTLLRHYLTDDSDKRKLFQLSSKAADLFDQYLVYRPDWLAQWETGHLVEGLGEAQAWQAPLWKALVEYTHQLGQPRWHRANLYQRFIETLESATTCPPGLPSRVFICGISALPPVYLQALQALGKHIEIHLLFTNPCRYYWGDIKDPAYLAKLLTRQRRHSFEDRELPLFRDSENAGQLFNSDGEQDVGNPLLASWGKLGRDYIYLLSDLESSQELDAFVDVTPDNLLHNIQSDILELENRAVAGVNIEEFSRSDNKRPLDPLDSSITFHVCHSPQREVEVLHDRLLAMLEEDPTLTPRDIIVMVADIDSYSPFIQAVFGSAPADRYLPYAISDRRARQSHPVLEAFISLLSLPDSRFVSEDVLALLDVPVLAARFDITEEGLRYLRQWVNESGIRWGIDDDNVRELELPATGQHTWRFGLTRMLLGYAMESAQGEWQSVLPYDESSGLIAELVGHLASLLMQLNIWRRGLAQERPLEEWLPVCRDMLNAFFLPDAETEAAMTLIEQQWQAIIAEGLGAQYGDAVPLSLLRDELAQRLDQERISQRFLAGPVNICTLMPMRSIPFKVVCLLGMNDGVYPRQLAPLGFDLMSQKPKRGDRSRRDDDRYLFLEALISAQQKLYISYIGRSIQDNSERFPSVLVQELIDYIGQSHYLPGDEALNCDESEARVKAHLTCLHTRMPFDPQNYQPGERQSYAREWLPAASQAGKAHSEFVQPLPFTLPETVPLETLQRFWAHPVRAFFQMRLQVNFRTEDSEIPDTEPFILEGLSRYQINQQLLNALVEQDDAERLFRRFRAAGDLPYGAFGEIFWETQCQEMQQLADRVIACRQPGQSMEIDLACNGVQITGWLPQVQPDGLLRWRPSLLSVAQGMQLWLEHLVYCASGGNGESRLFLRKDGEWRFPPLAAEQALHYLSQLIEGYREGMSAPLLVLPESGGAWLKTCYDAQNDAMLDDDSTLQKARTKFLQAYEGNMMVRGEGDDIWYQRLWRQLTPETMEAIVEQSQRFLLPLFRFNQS
T1 sequence (P08394 whole entry): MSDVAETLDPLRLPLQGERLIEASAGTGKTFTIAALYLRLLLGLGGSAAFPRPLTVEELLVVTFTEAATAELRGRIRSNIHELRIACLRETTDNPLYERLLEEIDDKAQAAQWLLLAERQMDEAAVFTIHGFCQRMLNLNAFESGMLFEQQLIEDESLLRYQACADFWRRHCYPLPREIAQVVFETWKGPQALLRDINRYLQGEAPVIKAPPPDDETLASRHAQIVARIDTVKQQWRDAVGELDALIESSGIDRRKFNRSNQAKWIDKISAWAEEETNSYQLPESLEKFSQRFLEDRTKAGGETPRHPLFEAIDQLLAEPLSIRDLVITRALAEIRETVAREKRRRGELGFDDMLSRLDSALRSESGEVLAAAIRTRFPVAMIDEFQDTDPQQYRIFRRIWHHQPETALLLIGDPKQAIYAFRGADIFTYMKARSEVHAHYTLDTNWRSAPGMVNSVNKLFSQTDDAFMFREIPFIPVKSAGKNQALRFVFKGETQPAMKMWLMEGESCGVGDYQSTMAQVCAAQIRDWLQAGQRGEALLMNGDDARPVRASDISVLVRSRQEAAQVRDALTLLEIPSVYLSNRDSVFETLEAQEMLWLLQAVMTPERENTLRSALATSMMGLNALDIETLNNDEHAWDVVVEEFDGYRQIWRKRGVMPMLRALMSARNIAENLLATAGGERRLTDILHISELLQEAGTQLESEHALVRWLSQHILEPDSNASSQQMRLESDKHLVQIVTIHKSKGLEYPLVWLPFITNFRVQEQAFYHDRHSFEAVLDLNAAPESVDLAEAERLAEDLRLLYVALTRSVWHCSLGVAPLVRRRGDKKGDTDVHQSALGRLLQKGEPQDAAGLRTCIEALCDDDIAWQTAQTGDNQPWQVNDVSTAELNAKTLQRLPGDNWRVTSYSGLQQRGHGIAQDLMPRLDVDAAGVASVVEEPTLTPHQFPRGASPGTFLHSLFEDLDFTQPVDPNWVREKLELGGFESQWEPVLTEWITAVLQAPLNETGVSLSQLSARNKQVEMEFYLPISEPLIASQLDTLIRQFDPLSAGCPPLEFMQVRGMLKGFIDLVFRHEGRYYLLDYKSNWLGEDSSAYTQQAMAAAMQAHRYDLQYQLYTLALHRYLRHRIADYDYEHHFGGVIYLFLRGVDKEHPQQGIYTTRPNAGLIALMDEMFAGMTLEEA

In the case of `O=C(Nc1cccc(NC(=O)c2ccccc2Cl)c1)c1ccc([N+](=O)[O-])o1`, the EC50 [1] is reported as 4.47 µM (active), the IC50 [2] is reported as > 119 µM (inactive) and the EC50 [3] is reported as 12.1 µM (inconclusive). The IC50 (Exodeoxyribonuclease V) was > 119 µM (inactive).
With `COc1ccc(CC2=CC(=O)c3ccccc3C2=O)cc1` the EC50 [1] was 11.4 µM (active).
With `Cn1c(O)c(/C=N/NC(=O)c2cc3ccccc3cc2O)c2ccccc21` the IC50 [2] was > 119 µM (inactive), the EC50 [3] was > 160 µM (inconclusive) and the IC50 (Exodeoxyribonuclease V) was > 119 µM (inactive).
